This passage reports IC50 results from US11161844B2, “Cyclic substituted imidazo[4,5-c]quinoline derivatives” (Pfizer Inc., priority 2017, dated 2021).

The target in assay [1] is LRRK2, WT (GST-tagged truncated LRRK2) (Homo sapiens (Human), UniProt Q5S007). The assay is described as follows: LRRK2 kinase assay (Lantha Screen), wild type. In kind it is biochemical. As to conditions: 100 nM LRRKtide, 1 mM ATP, 2 μg/mL enzyme; geometric mean of 2-4 determinations unless otherwise indicated. The method, then: (§1) LRRK2 kinase activity was measured using Lantha Screen technology from Invitrogen. GST-tagged truncated LRRK2 from Invitrogen (Cat #PV4874) was incubated with a fluorescein-labeled peptide substrate based upon ezrin/radixin/moesin (ERM), also known as LRRKtide (Invitrogen cat #PR8976A), in the presence of a dose response of compound. Upon completion, the assay was stopped and detected with a terbium labeled anti-phospho-ERM antibody (Invitrogen, cat #PR8975A). The assay was carried out under the following protocol: The compound dose response was prepared by diluting compound to a top concentration of 0.3 mM in 100% DMSO and serial diluted by half-log in DMSO to give an 11 point curve, 100× final assay concentration. Using Echo acoustic dispensing, 60 nL of compound was transferred to a low volume Corning 384-well assay plate. 3 μL of a working solution of substrate (200 nM LRRKtide, 2 mM ATP) prepared in assay buffer (50 mM HEPES, pH 7.5, 3 mM MgCl2, with 2 mM DTT and 0.01% Brij35 added fresh) was added to the 60 nL compound assay plate. The kinase reaction was started with 3 μL of a working solution of LRRK2 enzyme at a concentration of 4 μg/mL. The final reaction concentrations were 100 nM LRRKtide, 1 mM ATP, 2 μg/mL LRRK2 enzyme and a compound dose response with a top dose of 3 μM. The reaction was allowed to progress at room temperature for 30 minutes and then stopped with the addition of 6 μL of detection buffer (20 mM Tris pH 7.6, 0.01% NP-40, 6 mM EDTA with 2 nM terbium labeled anti-phospho-ERM). After an incubation of 1 hour at room temperature, the plate was read on an Envision with an excitation wavelength of 340 nm and a reading emission at both 520 nm and 495 nm. The ratio of the 520 nm and 495 nm emission was used to analyze the data. Inhibition of mutant G2019S LRRK2 (Invitrogen cat #PV4881) was measured in the exact same method. All final concentrations of substrate ATP and enzyme were the same.
LRRK2, WT (GST-tagged truncated LRRK2), sequence (Q5S007 970-2527): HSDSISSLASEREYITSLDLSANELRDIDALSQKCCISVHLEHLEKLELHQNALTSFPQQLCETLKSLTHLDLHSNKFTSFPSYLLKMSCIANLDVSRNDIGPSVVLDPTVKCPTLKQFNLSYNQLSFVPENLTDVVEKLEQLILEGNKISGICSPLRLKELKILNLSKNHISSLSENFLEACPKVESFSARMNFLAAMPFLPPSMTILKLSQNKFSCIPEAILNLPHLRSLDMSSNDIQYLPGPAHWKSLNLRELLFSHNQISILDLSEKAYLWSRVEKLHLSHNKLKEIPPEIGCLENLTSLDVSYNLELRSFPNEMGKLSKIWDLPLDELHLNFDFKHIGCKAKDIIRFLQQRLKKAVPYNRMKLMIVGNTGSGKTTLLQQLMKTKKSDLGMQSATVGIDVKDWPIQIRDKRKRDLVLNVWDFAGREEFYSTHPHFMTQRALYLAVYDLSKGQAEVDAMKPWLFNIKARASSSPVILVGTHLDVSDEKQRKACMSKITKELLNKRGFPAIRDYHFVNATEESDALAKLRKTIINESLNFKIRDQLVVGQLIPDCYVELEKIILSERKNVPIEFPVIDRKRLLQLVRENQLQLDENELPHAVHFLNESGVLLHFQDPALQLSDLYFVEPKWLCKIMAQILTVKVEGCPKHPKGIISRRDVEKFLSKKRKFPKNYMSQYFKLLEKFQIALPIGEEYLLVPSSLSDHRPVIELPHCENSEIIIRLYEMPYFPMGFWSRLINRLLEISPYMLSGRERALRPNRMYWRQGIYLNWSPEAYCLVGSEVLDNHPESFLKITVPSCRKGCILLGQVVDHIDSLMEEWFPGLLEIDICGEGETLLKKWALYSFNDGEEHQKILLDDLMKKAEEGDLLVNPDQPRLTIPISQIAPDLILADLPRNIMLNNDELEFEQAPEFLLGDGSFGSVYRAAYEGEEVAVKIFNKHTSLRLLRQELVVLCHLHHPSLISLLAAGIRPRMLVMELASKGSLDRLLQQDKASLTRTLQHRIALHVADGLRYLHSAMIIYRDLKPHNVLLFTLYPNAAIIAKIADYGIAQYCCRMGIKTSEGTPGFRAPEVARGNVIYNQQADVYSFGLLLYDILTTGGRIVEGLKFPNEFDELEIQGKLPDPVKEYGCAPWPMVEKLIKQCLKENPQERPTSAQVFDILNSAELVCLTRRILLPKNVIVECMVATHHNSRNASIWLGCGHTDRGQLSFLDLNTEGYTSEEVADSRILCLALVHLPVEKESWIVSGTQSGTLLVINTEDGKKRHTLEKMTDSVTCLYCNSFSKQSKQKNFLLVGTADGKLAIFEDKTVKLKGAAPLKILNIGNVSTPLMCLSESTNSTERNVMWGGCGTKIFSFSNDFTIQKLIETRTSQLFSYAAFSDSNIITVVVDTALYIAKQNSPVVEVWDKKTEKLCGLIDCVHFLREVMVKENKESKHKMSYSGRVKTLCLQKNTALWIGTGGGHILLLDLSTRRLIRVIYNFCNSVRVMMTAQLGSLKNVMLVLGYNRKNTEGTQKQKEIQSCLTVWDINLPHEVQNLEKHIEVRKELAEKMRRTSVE

Assay [2] addresses mutant G2019S LRRK2 (Homo sapiens (Human), UniProt Q5S007, G2019S). The assay can be described thus: LRRK2 kinase assay (Lantha Screen), mutant G2019S. In kind it is biochemical. As to conditions: 100 nM LRRKtide, 1 mM ATP, 2 μg/mL enzyme; single determination unless otherwise indicated. The method, then: as §1

mutant G2019S LRRK2, sequence (Q5S007 970-2527 G2019S): as the sequence (Q5S007 970-2527) above, with G1050S counted along it

In general, IC50 refers to the midpoint of a concentration-inhibition curve. For `CN1CC(n2c(C3CCC(F)C3)nc3cnc4ccc(C#N)cc4c32)C(F)(F)C1` (centres unmarked) [Example 57, 1-(4,4-difluoro-1-methylpyrrolidin-3-yl)-2-(3-fluorocyclopentyl)-1H-imidazo[4,5-c]quinoline-8-carbonitrile], the IC50 came out at 4.54 nM in assay [1] and 5.94 nM in assay [2].

In the case of `CN1CC(n2c(C3CCC(F)C3)nc3cnc4ccc(C#N)cc4c32)C(F)(F)C1` (centres unmarked) [Example 58, 1-(4,4-difluoro-1-methylpyrrolidin-3-yl)-2-(3-fluorocyclopentyl)-1H-imidazo[4,5-c]quinoline-8-carbonitrile], the values for the IC50 in assay [1] and in assay [2] were 12.2 nM and 21.2 nM, respectively.

On to `CN1CC(n2c(C3CCC(F)C3)nc3cnc4ccc(C#N)cc4c32)C(F)(F)C1` (centres unmarked) [Example 59, 1-(4,4-difluoro-1-methylpyrrolidin-3-yl)-2-(3-fluorocyclopentyl)-1H-imidazo[4,5-c]quinoline-8-carbonitrile], for which the IC50 is 30.5 nM in assay [1] and 141 nM in assay [2].

With `CN1CC(n2c(C3CCC(F)C3)nc3cnc4ccc(C#N)cc4c32)C(F)(F)C1` (centres unmarked) [Example 60, 1-(4,4-difluoro-1-methylpyrrolidin-3-yl)-2-(3-fluorocyclopentyl)-1H-imidazo[4,5-c]quinoline-8-carbonitrile], the IC50 in assay [1] worked out at 57.1 nM; in assay [2], 97.4 nM.
